What was measured:
[1] = target: T1, CaV1.3 LTCCs (Rattus norvegicus, UniProt P27732); test: FLIPR Fluo-8 calcium influx assay, HEK293 cells stably expressing CaV1.3; format: cell-based; conditions: for Selectivity, ratio of the IC50 values (CaV1.2/CaV1.3): CaV1.3 over CaV1.2; for binding affinity for CaV1.3 LTCCs (in words): even at 100 µM; for binding to CaV1.3 LTCCs (in words): bulky bicyclic ring analogues
[2] = target: T1, CaV1.3 LTCCs; conditions: more potent than 6; ref previous study; cited from earlier work
[3] = target: CaV1.2 LTCCs (Oryctolagus cuniculus, UniProt P15381); test: FLIPR Fluo-8 calcium influx assay, HEK293 cells stably expressing CaV1.2; format: cell-based, rabbit; conditions: for binding affinity for CaV1.2 LTCCs (in words): even at 100 µM; for binding to CaV1.2 LTCCs (in words): bulky bicyclic ring analogues

T1 sequence (P27732 whole entry): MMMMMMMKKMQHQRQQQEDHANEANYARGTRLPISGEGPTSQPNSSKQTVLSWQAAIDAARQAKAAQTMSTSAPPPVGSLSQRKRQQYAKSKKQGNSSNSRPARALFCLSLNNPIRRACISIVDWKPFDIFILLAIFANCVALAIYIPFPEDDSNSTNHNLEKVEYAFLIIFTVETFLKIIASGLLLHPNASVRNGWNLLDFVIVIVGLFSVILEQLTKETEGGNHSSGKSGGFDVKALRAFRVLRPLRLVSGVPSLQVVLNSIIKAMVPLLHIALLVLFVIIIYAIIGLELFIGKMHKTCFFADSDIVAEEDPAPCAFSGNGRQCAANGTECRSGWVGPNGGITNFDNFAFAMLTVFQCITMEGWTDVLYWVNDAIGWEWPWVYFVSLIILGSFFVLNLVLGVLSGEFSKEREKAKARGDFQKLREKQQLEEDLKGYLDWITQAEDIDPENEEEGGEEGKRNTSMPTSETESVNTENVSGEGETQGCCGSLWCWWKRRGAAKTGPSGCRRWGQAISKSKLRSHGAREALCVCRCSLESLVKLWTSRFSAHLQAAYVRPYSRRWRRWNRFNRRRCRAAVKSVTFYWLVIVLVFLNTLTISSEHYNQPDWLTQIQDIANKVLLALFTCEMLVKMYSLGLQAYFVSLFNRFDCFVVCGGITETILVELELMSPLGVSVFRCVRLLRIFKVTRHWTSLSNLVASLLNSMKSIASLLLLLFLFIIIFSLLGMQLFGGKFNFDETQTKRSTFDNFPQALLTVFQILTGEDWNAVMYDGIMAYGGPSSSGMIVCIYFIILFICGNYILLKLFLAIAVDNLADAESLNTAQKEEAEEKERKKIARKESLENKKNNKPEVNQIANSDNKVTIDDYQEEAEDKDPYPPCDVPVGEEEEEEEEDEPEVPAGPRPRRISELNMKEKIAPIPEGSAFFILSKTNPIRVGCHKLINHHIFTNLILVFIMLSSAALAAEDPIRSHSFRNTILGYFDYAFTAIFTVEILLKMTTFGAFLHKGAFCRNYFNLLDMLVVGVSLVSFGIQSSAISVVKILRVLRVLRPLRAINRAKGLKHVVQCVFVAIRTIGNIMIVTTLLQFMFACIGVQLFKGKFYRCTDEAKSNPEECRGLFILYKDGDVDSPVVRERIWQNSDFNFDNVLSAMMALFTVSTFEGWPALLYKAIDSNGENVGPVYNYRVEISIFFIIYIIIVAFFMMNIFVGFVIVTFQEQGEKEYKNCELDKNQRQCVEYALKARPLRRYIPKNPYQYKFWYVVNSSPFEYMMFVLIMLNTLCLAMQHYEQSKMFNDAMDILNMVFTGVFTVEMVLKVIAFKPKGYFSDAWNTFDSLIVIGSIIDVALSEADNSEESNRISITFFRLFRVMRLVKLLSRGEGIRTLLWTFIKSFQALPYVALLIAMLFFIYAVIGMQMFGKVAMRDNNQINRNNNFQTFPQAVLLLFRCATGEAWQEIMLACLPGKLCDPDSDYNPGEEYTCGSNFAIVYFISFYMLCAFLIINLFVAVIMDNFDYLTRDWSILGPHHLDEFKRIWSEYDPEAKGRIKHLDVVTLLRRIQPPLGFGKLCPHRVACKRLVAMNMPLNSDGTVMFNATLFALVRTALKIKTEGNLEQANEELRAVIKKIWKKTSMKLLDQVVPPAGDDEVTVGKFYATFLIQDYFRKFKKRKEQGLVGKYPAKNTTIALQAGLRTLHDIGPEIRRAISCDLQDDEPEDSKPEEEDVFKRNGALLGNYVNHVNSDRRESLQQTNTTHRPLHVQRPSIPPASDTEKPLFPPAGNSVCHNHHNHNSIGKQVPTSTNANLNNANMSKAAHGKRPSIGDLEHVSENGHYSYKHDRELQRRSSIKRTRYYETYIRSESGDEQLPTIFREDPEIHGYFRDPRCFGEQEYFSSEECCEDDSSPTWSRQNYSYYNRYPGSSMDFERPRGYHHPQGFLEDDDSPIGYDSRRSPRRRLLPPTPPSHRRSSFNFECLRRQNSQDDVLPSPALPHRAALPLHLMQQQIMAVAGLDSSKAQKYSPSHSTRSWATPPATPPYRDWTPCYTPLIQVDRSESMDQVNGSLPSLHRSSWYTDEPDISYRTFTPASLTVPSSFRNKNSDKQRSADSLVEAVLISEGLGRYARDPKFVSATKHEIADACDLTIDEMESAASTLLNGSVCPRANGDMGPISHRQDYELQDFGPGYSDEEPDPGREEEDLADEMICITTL
T1 sequence (P54287 whole entry partner): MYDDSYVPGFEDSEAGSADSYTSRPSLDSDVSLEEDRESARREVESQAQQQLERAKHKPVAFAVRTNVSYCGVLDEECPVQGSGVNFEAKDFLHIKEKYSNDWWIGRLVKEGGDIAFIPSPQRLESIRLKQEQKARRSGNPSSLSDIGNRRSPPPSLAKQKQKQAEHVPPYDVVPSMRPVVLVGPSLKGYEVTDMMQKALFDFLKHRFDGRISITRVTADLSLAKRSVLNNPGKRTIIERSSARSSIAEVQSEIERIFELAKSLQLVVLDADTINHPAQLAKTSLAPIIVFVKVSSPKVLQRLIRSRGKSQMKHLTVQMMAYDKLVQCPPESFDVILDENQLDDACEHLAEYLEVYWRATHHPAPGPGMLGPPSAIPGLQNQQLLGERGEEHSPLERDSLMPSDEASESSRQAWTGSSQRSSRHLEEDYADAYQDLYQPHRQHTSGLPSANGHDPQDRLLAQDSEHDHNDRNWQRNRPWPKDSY
T1 sequence (P54290 25-1091 partner): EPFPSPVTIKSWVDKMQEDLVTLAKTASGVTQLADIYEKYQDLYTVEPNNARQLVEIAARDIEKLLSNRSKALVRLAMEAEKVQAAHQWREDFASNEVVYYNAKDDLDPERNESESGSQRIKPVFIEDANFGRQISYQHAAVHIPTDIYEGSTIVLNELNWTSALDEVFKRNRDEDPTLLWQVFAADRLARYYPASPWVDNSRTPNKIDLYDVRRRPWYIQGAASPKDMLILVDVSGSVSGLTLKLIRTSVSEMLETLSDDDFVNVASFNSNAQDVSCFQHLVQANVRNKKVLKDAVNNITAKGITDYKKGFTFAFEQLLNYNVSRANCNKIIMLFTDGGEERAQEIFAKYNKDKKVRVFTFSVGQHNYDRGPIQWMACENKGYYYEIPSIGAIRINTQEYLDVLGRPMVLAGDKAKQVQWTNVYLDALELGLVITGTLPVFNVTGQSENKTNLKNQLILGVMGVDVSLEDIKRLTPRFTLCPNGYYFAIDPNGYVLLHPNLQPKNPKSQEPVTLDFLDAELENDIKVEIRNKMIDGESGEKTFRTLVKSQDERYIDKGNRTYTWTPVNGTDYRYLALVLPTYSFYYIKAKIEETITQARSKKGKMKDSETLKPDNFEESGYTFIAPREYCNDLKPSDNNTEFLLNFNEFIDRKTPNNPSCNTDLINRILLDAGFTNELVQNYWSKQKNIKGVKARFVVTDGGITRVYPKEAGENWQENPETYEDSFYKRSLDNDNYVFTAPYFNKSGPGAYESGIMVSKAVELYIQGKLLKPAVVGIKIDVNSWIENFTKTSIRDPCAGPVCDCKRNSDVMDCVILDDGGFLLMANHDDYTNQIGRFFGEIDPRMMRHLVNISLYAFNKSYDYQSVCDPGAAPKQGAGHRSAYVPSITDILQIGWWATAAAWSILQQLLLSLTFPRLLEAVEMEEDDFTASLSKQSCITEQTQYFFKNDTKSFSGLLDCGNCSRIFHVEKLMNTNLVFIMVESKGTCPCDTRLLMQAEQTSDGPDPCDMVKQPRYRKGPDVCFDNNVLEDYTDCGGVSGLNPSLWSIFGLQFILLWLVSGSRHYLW

## O=C1CC(=O)N([C@H]2C[C@H]3CC[C@@H]2C3)C(=O)N1CCc1cccc(Cl)c1 [Compound 49, 1-((1R,2S,4S)-Bicyclo[2.2.1]heptan-2-yl)-3-(3-chlorophenethyl)pyrimidine-2,4,6(1H,3H,5H)-trione]
[1]
  Selectivity, ratio of the IC50 values (CaV1.2/CaV1.3): >29

## O=C1CC(=O)N(C2CC3CCC2C3)C(=O)N1CCc1ccc(Cl)cc1 (mixture of isomers) [Compound 7, N-(4-chlorophenethyl)-N′-(±)-endo-norbornylpyrimidine-2,4,6-(1H,3H,5H)-trione]
[2]
  potency toward CaV1.3 LTCC relative to 6: 3 fold

## O=C1CC(=O)N([C@H]2CCC[C@@H]2O)C(=O)N1CCc1cccc(Cl)c1 [Compound 69]
[1]
  binding affinity for CaV1.3 LTCCs (in words): no binding affinity
[3]
  binding affinity for CaV1.2 LTCCs (in words): no binding affinity

## C[C@@H](C1CCCCC1)N1C(=O)CC(=O)N(CCc2ccc(Cl)cc2)C1=O [Compound 44, (S)-1-(4-Chlorophenethyl)-3-(1-cyclohexylethyl)pyrimidine-2,4,6(1H,3H,5H)-trione]
[1]
  Selectivity, ratio of the IC50 values (CaV1.2/CaV1.3): >12

## CC1(C)[C@@H]2CC[C@@]1(C)[C@@H](N1C(=O)CC(=O)N(CCc3cccc(Cl)c3)C1=O)C2 [Compound 53]
[1]
  binding to CaV1.3 LTCCs (in words): almost no binding
[3]
  binding to CaV1.2 LTCCs (in words): almost no binding

## CC1(C)[C@@H]2CC[C@@]1(C)[C@@H](N1C(=O)CC(=O)N(CCc3ccc(Cl)cc3)C1=O)C2 [Compound 54]
[1]
  binding to CaV1.3 LTCCs (in words): almost no binding
[3]
  binding to CaV1.2 LTCCs (in words): almost no binding

## C[C@H](C1CCCCC1)N1C(=O)CC(=O)N(CCc2ccc(Cl)cc2)C1=O [Compound 46, (R)-1-(4-Chlorophenethyl)-3-(1-cyclohexylethyl)pyrimidine-2,4,6(1H,3H,5H)-trione]
[1]
  Selectivity, ratio of the IC50 values (CaV1.2/CaV1.3): >12

## O=C1CC(=O)N([C@H]2CCNC2)C(=O)N1CCc1cccc(Cl)c1 [Compound 65]
[1]
  binding affinity for CaV1.3 LTCCs (in words): no binding affinity
[3]
  binding affinity for CaV1.2 LTCCs (in words): no binding affinity

## CC1(C)[C@@H]2CC[C@H](CN3C(=O)CC(=O)N(CCc4cccc(Cl)c4)C3=O)[C@H]1C2 [Compound 55]
[1]
  binding to CaV1.3 LTCCs (in words): almost no binding
[3]
  binding to CaV1.2 LTCCs (in words): almost no binding

## O=C(O)[C@H]1CC[C@@H](N2C(=O)CC(=O)N(CCc3cccc(Cl)c3)C2=O)C1 [Compound 67]
[1]
  binding affinity for CaV1.3 LTCCs (in words): no binding affinity
[3]
  binding affinity for CaV1.2 LTCCs (in words): no binding affinity

## CC1(C)[C@@H]2CC[C@H](CN3C(=O)CC(=O)N(CCc4ccc(Cl)cc4)C3=O)[C@H]1C2 [Compound 56]
[1]
  binding to CaV1.3 LTCCs (in words): almost no binding
[3]
  binding to CaV1.2 LTCCs (in words): almost no binding

Reference: publication PMC4595045 (Journal of medicinal chemistry, 2013)
